Data: patent US11560395B2, “Azithromycin derivatives containing a phosphonium ion as anticancer agents” (Rising Tide Foundation, priority 2017, dated 2023)

Tested on: MDA-231 cancer cells
Test: Inhibition of proliferation assay, cell confluence (IncuCyte live cell imaging)
Type: cell-based
Settings: MDA-231 cells, concentration 10 uM; relative confluence normalised to time zero, images every 3 h over 4-5 d
Source text: Inhibition of Proliferation Assay Cell Confluence The confluence value is a surrogate for cell proliferation and growth. The value is expressed as a percent confluence, which represents the fraction of culture dish-surface that is occupied by cells. As the number of cells in the dish increases over time due to proliferation, so will their coverage of that surface increase. Expansion of the cell population on the cell culture-dish surface and confluence have mostly a linear relationship until the cells on the plate surface begin to reach saturation or maximum density. Confluence is determined based on image analysis. Image based software can identify objects in the image field base on changes to pixel density in a grey scale image. The software can then assign a mask to those pixels within the object. Objects can be ‘gated’ out based on size and shape. To determine cell confluence, images of cells are first masked as objects. The surface area of the image that is masked is measured and compared to the total surface area of the culture dish surface to obtain a percent confluence. MDA-231 cancer cells were obtained from ATCC. Cells were cultured in Dulbecco's Modified Eagle Medium (DMEM) supplemented with 10% Fetal Bovine Serum (FBS), 2 mM Glutamax, 1 mM Non Essential Amino Acid (NEAA) solution and 1 mM sodium pyruvate. Compounds were dissolved in DMSO at 10 mM and diluted in cellular medium and tested at 10 μM (micromolar). Final DMSO concentrations were <0.1%. Images were acquired with an IncuCyte Live Cell Imaging microscopy (Essen Bioscience) at every 3 h under cell culture conditions with 10× objective over 4-5 d. Cell confluence was calculated from one field of view per well using the IncuCyte in-built algorithm. Relative confluence values were obtained by normalising each value to the time zero value in each sample.

SMILES	% Confluence
CC[C@H]1OC(=O)[C@H](C)[C@@H](O[C@H]2C[C@@](C)(OC)[C@@H](O)[C@H](C)O2)[C@H](C)[C@@H](O[C@@H]2O[C@H](C)C[C@H](N(C)C)[C@H]2O)[C@](C)(O)C[C@@H](C)CN(C(=O)CCCCCCCCCCC[P+](c2ccccc2)(c2ccccc2)c2ccccc2)[C@H](C)[C@@H](O)[C@]1(C)O [Example 5, {12-[(2R,3S,4R,5R,8R,10R,11R,12S,13S,14R)-11-{[(2S,3R,4S,6R)-4-(dimethylamino)-3-hydroxy-6-methyloxan-2-yl]oxy}-2-ethyl-3,4,10-trihydroxy-13-{[(2R,4R,5S,6S)-5-hydroxy-4-methoxy-4,6-dimethyloxan-2-yl]oxy}-3,5,8,10,12,14-hexamethyl-15-oxo-1-oxa-6-azacyclopentadecan-6-yl]-12-oxododecyl}triphenylphosphonium hexafluorophosphate(V)]	5%
CC[C@H]1OC(=O)[C@H](C)[C@@H](O[C@H]2C[C@@](C)(OC)[C@@H](O)[C@H](C)O2)[C@H](C)[C@@H](O[C@@H]2O[C@H](C)C[C@H](N(C)C)[C@H]2O)[C@](C)(O)C[C@@H](C)CN(C(=O)CCCCC[PH](c2ccccc2)(c2ccccc2)c2ccccc2)[C@H](C)[C@@H](O)[C@]1(C)O [Example 6, {6-[(2R,3S,4R,5R,8R,10R,11R,12S,13S,14R)-11-{[(2S,3R,4S,6R)-4-(dimethylamino)-3-hydroxy-6-methyloxan-2-yl]oxy}-2-ethyl-3,4,10-trihydroxy-13-{[(2R,4R,5S,6S)-5-hydroxy-4-methoxy-4,6-dimethyloxan-2-yl]oxy}-3,5,8,10,12,14-hexamethyl-15-oxo-1-oxa-6-azacyclopentadecan-6-yl]-6-oxohexyl}triphenylphosphonium hexafluorophosphate(V)]	118.9%
CC[C@H]1OC(=O)[C@H](C)[C@@H](O[C@H]2C[C@@](C)(OC)[C@@H](O)[C@H](C)O2)[C@H](C)[C@@H](O[C@@H]2O[C@H](C)C[C@H](N(C)C)[C@H]2O)[C@](C)(O)C[C@@H](C)CN(CCCCCCCC[P+](c2ccccc2)(c2ccccc2)c2ccccc2)[C@H](C)[C@@H](O)[C@]1(C)O.[I-] [Example 7, {8-[(2R,3S,4R,5R,8R,10R,11R,12S,13S,14R)-11-{[(2S,3R,4S,6R)-4-(dimethylamino)-3-hydroxy-6-methyloxan-2-yl]oxy}-2-ethyl-3,4,10-trihydroxy-13-{[(2R,4R,5S,6S)-5-hydroxy-4-methoxy-4,6-dimethyloxan-2-yl]oxy}-3,5,8,10,12,14-hexamethyl-15-oxo-1-oxa-6-azacyclopentadecan-6-yl]octyl}triphenylphosphonium iodide]	23.3%
CC[C@H]1OC(=O)[C@H](C)[C@@H](O[C@H]2C[C@@](C)(OC)[C@@H](O)[C@H](C)O2)[C@H](C)[C@@H](O[C@@H]2O[C@H](C)C[C@H](N(C)C)[C@H]2O)[C@](C)(O)C[C@@H](C)CN(CCCCCC[P+](c2ccccc2)(c2ccccc2)c2ccccc2)[C@H](C)[C@@H](O)[C@]1(C)O [Example 8, {6-[(2R,3S,4R,5R,8R,10R,11R,12S,13S,14R)-11-{[(2S,3R,4S,6R)-4-(dimethylamino)-3-hydroxy-6-methyloxan-2-yl]oxy}-2-ethyl-3,4,10-trihydroxy-13-{[(2R,4R,5S,6S)-5-hydroxy-4-methoxy-4,6-dimethyloxan-2-yl]oxy}-3,5,8,10,12,14-hexamethyl-15-oxo-1-oxa-6-azacyclopentadecan-6-yl]hexyl}triphenylphosphonium iodide]	109.9%
CC[C@H]1OC(=O)[C@H](C)[C@@H](O[C@H]2C[C@@](C)(OC)[C@@H](O)[C@H](C)O2)[C@H](C)[C@@H](O[C@@H]2O[C@H](C)C[C@H](N(C)C)[C@H]2O)[C@](C)(O)C[C@@H](C)CN(C(=O)CCCCCCC[P+](c2ccccc2)(c2ccccc2)c2ccccc2)[C@H](C)[C@@H](O)[C@]1(C)O [Example 9, {8-[(2R,3S,4R,5R,8R,10R,11R,12S,13S,14R)-11-{[(2S,3R,4S,6R)-4-(dimethylamino)-3-hydroxy-6-methyloxan-2-yl]oxy}-2-ethyl-3,4,10-trihydroxy-13-{[(2R,4R,5S,6S)-5-hydroxy-4-methoxy-4,6-dimethyloxan-2-yl]oxy}-3,5,8,10,12,14-hexamethyl-15-oxo-1-oxa-6-azacyclopentadecan-6-yl]-8-oxooctyl}triphenylphosphonium hexafluorophosphate(V)]	105.3%
CC[C@H]1OC(=O)[C@H](C)[C@@H](O)[C@H](C)[C@@H](O[C@@H]2O[C@H](C)C[C@H](N(C)C)[C@H]2O)[C@](C)(O)C[C@@H](C)CN(C(=O)CCCCCCCCCCC[P+](c2ccccc2)(c2ccccc2)c2ccccc2)[C@H](C)[C@@H](O)[C@]1(C)O [Example 12, {12-[(2R,3S,4R,5R,8R,10R,11R,12S,13S,14R)-11-{[(2S,3R,4S,6R)-4-(dimethylamino)-3-hydroxy-6-methyloxan-2-yl]oxy}-2-ethyl-3,4,10,13-tetrahydroxy-3,5,8,10,12,14-hexamethyl-15-oxo-1-oxa-6-azacyclopentadecan-6-yl]-12-oxododecyl}triphenylphosphonium hexafluorophosphate(V)]	6.6%
CC[C@H]1OC(=O)[C@H](C)[C@@H](O)[C@H](C)[C@@H](O)[C@](C)(O)C[C@@H](C)CN(C(=O)CCCCCCCCCCC[PH](c2ccccc2)(c2ccccc2)c2ccccc2)[C@H](C)[C@@H](O)[C@]1(C)O [Example 13, {12-[(2R,3S,4R,5R,8R,10R,11R,12S,13S,14R)-2-ethyl-3,4,10,11,13-pentahydroxy-3,5,8,10,12,14-hexamethyl-15-oxo-1-oxa-6-azacyclopentadecan-6-yl]-12-oxododecyl}triphenylphosphonium hexafluorophosphate(V)]	11%
CC[C@H]1OC(=O)[C@H](C)[C@@H](O[C@H]2C[C@@](C)(OC)[C@@H](O)[C@H](C)O2)[C@H](C)[C@@H](O[C@@H]2O[C@H](C)C[C@H](N(C)C)[C@H]2O)[C@](C)(O)C[C@@H](C)CN(CCCCCCCCCC[PH](c2ccccc2)(c2ccccc2)c2ccccc2)[C@H](C)[C@@H](O)[C@]1(C)O [Example 14, {10-[(2R,3S,4R,5R,8R,10R,11R,12S,13S,14R)-11-{[(2S,3R,4S,6R)-4-(dimethylamino)-3-hydroxy-6-methyloxan-2-yl]oxy}-2-ethyl-3,4,10-trihydroxy-13-{[(2R,4R,5S,6S)-5-hydroxy-4-methoxy-4,6-dimethyloxan-2-yl]oxy}-3,5,8,10,12,14-hexamethyl-15-oxo-1-oxa-6-azacyclopentadecan-6-yl]decyl}triphenylphosphonium iodide]	10.1%
CC[C@H]1OC(=O)[C@H](C)[C@@H](O[C@H]2C[C@@](C)(OC)[C@@H](O)[C@H](C)O2)[C@H](C)[C@@H](O[C@@H]2O[C@H](C)C[C@H](N(C)C)[C@H]2O)[C@](C)(O)C[C@@H](C)CN(CCCCCCCCC[PH](c2ccccc2)(c2ccccc2)c2ccccc2)[C@H](C)[C@@H](O)[C@]1(C)O [Example 15, {9-[(2R,3S,4R,5R,8R,10R,11R,12S,13S,14R)-11-{[(2S,3R,4S,6R)-4-(dimethylamino)-3-hydroxy-6-methyloxan-2-yl]oxy}-2-ethyl-3,4,10-trihydroxy-13-{[(2R,4R,5S,6S)-5-hydroxy-4-methoxy-4,6-dimethyloxan-2-yl]oxy}-3,5,8,10,12,14-hexamethyl-15-oxo-1-oxa-6-azacyclopentadecan-6-yl]nonyl}triphenylphosphonium iodide]	10.7%
CC[C@H]1OC(=O)[C@H](C)[C@@H](O)[C@H](C)[C@@H](O)[C@](C)(O)C[C@@H](C)CN(C(=O)CCCCCCCCCCCCC[P+](c2ccccc2)(c2ccccc2)c2ccccc2)[C@H](C)[C@@H](O)[C@]1(C)O [Example 16, {14-[(2R,3S,4R,5R,8R,10R,11R,12S,13S,14R)-2-ethyl-3,4,10,11,13-pentahydroxy-3,5,8,10,12,14-hexamethyl-15-oxo-1-oxa-6-azacyclopentadecan-6-yl]-14-oxotetradecyl}triphenylphosphonium hexafluorophosphate(V)]	9.9%
CC[C@H]1OC(=O)[C@H](C)[C@@H](O[C@H]2C[C@@](C)(OC)[C@@H](O)[C@H](C)O2)[C@H](C)[C@@H](O[C@@H]2O[C@H](C)C[C@H](N(C)C)[C@H]2O)[C@](C)(O)C[C@@H](C)CN(C)[C@H](C)[C@@H](OC(=O)NCCCCCC[P+](c2ccccc2)(c2ccccc2)c2ccccc2)[C@]1(C)O.[Br-] [Example 17, (2R,3R,4R,5R,8R,10R,11R,12S,13S,14R)-11-{[(2S,3R,4S,6R)-4-(dimethylamino)-3-hydroxy-6-methyloxan-2-yl]oxy}-2-ethyl-3,10-dihydroxy-13-{[(2R,4R,5S,6S)-5-hydroxy-4-methoxy-4,6-dimethyloxan-2-yl]oxy}-3,5,6,8,10,12,14-heptamethyl-15-oxo-1-oxa-6-azacyclopentadecan-4-yl N-[6-(triphenylphosphoniumyl)hexyl]carbamate bromide]	82.6%
